# Laboratory results reported in ChEMBL document CHEMBL1140229, “Flavanones from the stem bark of Erythrina abyssinica” (Bioorg Med Chem, 2008).
# pIC50: −log10 of the molar value. Active and inactive are the calls of the source. No cut-off for these calls is given here.
# Target: T1, Tyrosine-protein phosphatase non-receptor type 1 (Homo sapiens, UniProt P18031)
# T1 sequence (P18031 whole entry): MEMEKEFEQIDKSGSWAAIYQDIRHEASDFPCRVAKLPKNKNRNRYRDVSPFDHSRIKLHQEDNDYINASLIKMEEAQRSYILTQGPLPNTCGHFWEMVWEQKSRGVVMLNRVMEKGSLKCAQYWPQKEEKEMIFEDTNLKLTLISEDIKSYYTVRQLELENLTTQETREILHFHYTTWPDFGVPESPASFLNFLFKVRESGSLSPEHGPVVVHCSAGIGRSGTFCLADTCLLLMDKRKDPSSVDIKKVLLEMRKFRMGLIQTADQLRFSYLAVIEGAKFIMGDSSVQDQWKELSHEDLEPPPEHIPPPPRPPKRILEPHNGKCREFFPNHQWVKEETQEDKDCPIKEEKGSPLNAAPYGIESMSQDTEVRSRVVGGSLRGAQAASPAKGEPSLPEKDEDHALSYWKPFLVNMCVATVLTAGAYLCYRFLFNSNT
# Test: (§1) Inhibition of human recombinant PTP1B
row,SMILES,pIC50
1,CCCCCCCCCCCCCCCC(=O)C1=C(O)[C@@H](CO)OC1=O,5.33
2,CC(C)=CCc1cc([C@@H]2CC(=O)c3c(O)cc(O)cc3O2)cc2c1OC(C)(C)C(O)C2 (some centres undefined),4.83
3,COc1cc([C@@H]2CC(=O)c3c(O)cc(O)cc3O2)cc2c1OC(C)(CO)C=C2 (some centres undefined),4.75
4,COc1cc([C@@H]2CC(=O)c3c(O)cc(O)cc3O2)cc2c1OC(C)(C)C(O)C2 (some centres undefined),4.74
5,CC(C)=CCc1cc([C@@H]2CC(=O)c3c(O)cc(O)cc3O2)cc2c1OC(C)(C)C(O)C2O (some centres undefined),4.72
6,CC1(C)Oc2c(O)cc([C@@H]3CC(=O)c4ccc(O)cc4O3)cc2C(O)C1O (some centres undefined),< 4.22
7,CC(C)=CCc1c([C@@H]2CC(=O)c3c(O)cc(O)cc3O2)cc(O)c2c1C=CC(C)(C)O2,4.86
8,CC1(C)Oc2c(O)cc([C@@H]3CC(=O)c4c(O)cc(O)cc4O3)cc2C[C@@H]1O [SIGMOIDIN D],< 4.22
9,CC1(C)Oc2ccc([C@@H]3CC(=O)c4c(O)cc(O)cc4O3)cc2C(O)C1O (some centres undefined),< 4.22
10,CC1(C)C(C2CC(=O)c3ccccc3O2)=C(O)C(O)=C2OC(O)C(O)C(O)C21 (centres undefined) [SIGMOIDIN G],< 4.22
11,CC(C)=CCc1c([C@@H]2CC(=O)c3c(O)cc(O)cc3O2)cc2c(c1O)OC(C)(C)C(O)C2O (some centres undefined),4.74
12,CC1(C)CC(=O)c2cc([C@@H]3CC(=O)c4c(O)cc(O)cc4O3)cc(O)c2O1,< 4.22
13,CC1(CO)C=Cc2cc([C@@H]3CC(=O)c4c(O)cc(O)cc4O3)cc(O)c2O1 (some centres undefined),< 4.22
14,CC1(C)C=Cc2cc([C@@H]3CC(=O)c4c(O)cc(O)cc4O3)c3c(c2O1)OC(C)(C)C=C3,< 4.22
15,COc1c(/C=C/C(C)(C)O)cc([C@@H]2CC(=O)c3c(O)cc(O)cc3O2)cc1CC=C(C)C [BURTTINONE],4.72
16,CC1(C)Oc2c(O)cc([C@@H]3CC(=O)c4ccc(O)cc4O3)cc2CC1O (some centres undefined),< 4.22
17,C=C(C)/C=C/c1cc([C@@H]2CC(=O)c3c(O)cc(O)cc3O2)cc(CC=C(C)C)c1OC [BURTTINONEDEHYDRATE],4.67

# Target: T2, Tyrosine-protein phosphatase non-receptor type 1 (Homo sapiens) (UniProt P18031)
# T2 sequence (whole entry): T1 sequence (P18031 whole entry)
# Test: as §1
row,SMILES,Activity
1,O=C1C[C@@H](c2ccc(O)cc2)Oc2cc(O)cc(O)c21,inactive
2,O=C1C[C@@H](c2ccc(O)cc2)Oc2cc(O)ccc21,inactive
